Tested on: Malassezia pachydermatis (ATCC14522 strain)
Assay: Malassezia otitis externa effect test (dog) (Test Example 3)
Format: in vivo, dog (Beagle)
Set-up: Total score (redness, earwax, itching, rash) Immediately before treatment / Total score (redness, earwax, itching, rash) 7 Days after treatment: scale not given here
Conditions: for Microbial count (cfu/ml) 7 Days after treatment: 500 ppm agent solution for 1 minute; for Microbial count (cfu/ml) Immediately before treatment: baseline before 500 ppm agent solution; for Total score (redness, earwax, itching, rash) 7 Days after treatment: 5 mL of 500 ppm agent solution for 1 minute; for Improvement rate (%) of microbial count / Improvement rate (%) of symptom total score: 500 ppm for 1 minute, 7 days after treatment; for Total score (redness, earwax, itching, rash) Immediately before treatment: baseline 7 days after inoculation, before 500 ppm agent solution
Protocol: Test Example 3: Malassezia Otitis Externa Effect Test (Dog) Test Variety: Beagle (19 to 20-Month-Old)
Test Microbial Strain: Malassezia Pachydermatis (ATCC14522 Strain)
A colony of the Malassezia microbe pre-cultured (7 days, 30° C.) on a Sabouraud agar medium was suspended in sterilized physiological saline (microbial concentration of 1.0 × 10^6 cells/mL), and 0.1 mL of the resulting suspension was inoculated into both ears of the test animal. 7 Days after the inoculation, both ears were filled with 5 mL of an agent solution (sterilized physiological saline solution supplemented with 5% DMSO) prepared to have a concentration of the test compound of 500 ppm, and after 1 minute, thoroughly washed with sterilized physiological saline solution.
At the same time, the number of the Malassezia microbe present inside the ears of the sample was also investigated by the following method.
The surface of the ear canal was scraped three times using a cotton swab to collect the microbe, and the collected microbe was suspended in 1 mL of PBS (containing 8 g of sodium chloride, 2.9 g of disodium hydrogen phosphate, 0.2 g of potassium chloride, and 0.2 g of potassium dihydrogen phosphate in 1000 mL) supplemented with 1% v/v of Tween80 (polyoxyethylene sorbitan monooleate: manufactured by Kanto Chemical Co., Ltd.) together with the cotton swab. The resulting suspension was serially diluted 10-fold with the PBS, and 0.1 mL thereof was applied to a CHROMagar Malassezia/Candida medium (trade name; peptone, special enzyme substrate mixture, chloramphenicol, olive oil, agar) and cultured at 30° C. for 4 days. After that, the colonies having a pink to purple color were counted, the microbial count score was calculated, and the improvement rate was determined.

## Cc1cc(-c2nc(C#N)[nH]c2Cl)ccc1Cl [Compound No. 7, 5-chloro-4-(4-chloro-3-methylphenyl)-1H-imidazole-2-carbonitrile]
Left ear canal swab
  Microbial count (cfu/ml) 7 Days after treatment: 20 cfu/ml
  Microbial count (cfu/ml) Immediately before treatment: 480 cfu/ml
Left ear
  Total score (redness, earwax, itching, rash) 7 Days after treatment: 0
  Improvement rate (%) of microbial count: 95.8%
  Improvement rate (%) of symptom total score: 100%
  Total score (redness, earwax, itching, rash) Immediately before treatment: 3
Right ear canal swab
  Microbial count (cfu/ml) 7 Days after treatment: 30 cfu/ml
  Microbial count (cfu/ml) Immediately before treatment: 160 cfu/ml
Right ear
  Total score (redness, earwax, itching, rash) 7 Days after treatment: 0
  Improvement rate (%) of microbial count: 81.3%
  Improvement rate (%) of symptom total score: 100%
  Total score (redness, earwax, itching, rash) Immediately before treatment: 3

## Cc1ccc(-c2nc(C#N)n(O)c2Cl)cc1 [Compound No. 9, 5-chloro-1-hydroxy-4-(4-methylphenyl)-1H-imidazole-2-carbonitrile]
Left ear canal swab
  Microbial count (cfu/ml) 7 Days after treatment: 20 cfu/ml
  Microbial count (cfu/ml) Immediately before treatment: 1,100 cfu/ml
Left ear
  Total score (redness, earwax, itching, rash) 7 Days after treatment: 1
  Improvement rate (%) of microbial count: 98.2%
  Improvement rate (%) of symptom total score: 67%
  Total score (redness, earwax, itching, rash) Immediately before treatment: 3
Right ear canal swab
  Microbial count (cfu/ml) 7 Days after treatment: 30 cfu/ml
  Microbial count (cfu/ml) Immediately before treatment: 1,600 cfu/ml
Right ear
  Total score (redness, earwax, itching, rash) 7 Days after treatment: 1
  Improvement rate (%) of microbial count: 98.1%
  Improvement rate (%) of symptom total score: 67%
  Total score (redness, earwax, itching, rash) Immediately before treatment: 3
